Here are results for 24 molecules from patent US9376442B2, “Methylpyrrolopyrimidinecarboxamides” (Takeda GmbH, priority 2009, dated 2016).

The target of the assay is T1, PDE5A1 (Homo sapiens, UniProt O76074).
T1 construct: from tissue; host or cells: human platelets from fresh donor blood (10,000 x g supernatant of sonicated lysate)
As to the kind of experiment: Inhibition of type 5 phosphodiesterase (PDE5) activity, modified SPA test with human platelet lysate. The class given is biochemical. The note with it: 0.5 μM cGMP, read-out: PDE5A1 inhibitory values [measured as −log IC50 (mol/l)] (converted). The gist of the method:
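Scintillation proximity assay with [3H]cGMP tracer at 0.5 μM total cGMP, stopped after 15 min with beads containing IBMX. PDE3 and PDE2 activities suppressed with motapizone (1 μM) and a PDE2 inhibitor (10 nM). Human platelet supernatant served as the enzyme, with compound preincubated 5 min at 37° C; IC50 values from concentration-effect curves.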
Turning to `CCC(=O)N[C@H]1CC[C@H](NC(=O)c2c(C)[nH]c3c(-c4c(OCC5CC5)ccc5c4OCO5)ncnc23)CC1` [Example E6, 4-[5-(Cyclopropylmethoxy)-1,3-benzodioxol-4-yl]-6-methyl-N-[trans-4-(propionylamino)cyclohexyl]-5H-pyrrolo[3,2-d]pyrimidine-7-carboxamide], the IC50 is below 1 nM.

Regarding `COCC(=O)N1CC[C@@H](NC(=O)c2c(C)[nH]c3c(-c4cc(F)c(OC)cc4OCC4CC4)ncnc23)C1` [Example E188, 4-[2-(Cyclopropylmethoxy)-5-fluoro-4-methoxyphenyl]-N-[(3R)-1-(methoxyacetyl)pyrrolidin-3-yl]-6-methyl-5H-pyrrolo[3,2-d]pyrimidine-7-carboxamide], the IC50 was below 1 nM.

Take `COCC(=O)N[C@H]1CC[C@@H](NC(=O)c2c(C)[nH]c3c(-c4cc(F)c(OC)cc4OCC4CC4)ncnc23)CC1` [Example E140, 4-[2-(Cyclopropylmethoxy)-5-fluoro-4-methoxyphenyl]-N-{cis-4-[(methoxyacetyl)amino]cyclohexyl}-6-methyl-5H-pyrrolo[3,2-d]pyrimidine-7-carboxamide]: the IC50 was below 1 nM.

`CCOc1ccc(C(F)(F)F)cc1-c1ncnc2c(C(=O)NC3CCN(C(=O)COC)CC3)c(C)[nH]c12` [Example E101, 4-[2-Ethoxy-5-(trifluoromethyl)phenyl]-N-[1-(methoxyacetyl)piperidin-4-yl]-6-methyl-5H-pyrrolo[3,2-d]pyrimidine-7-carboxamide]: the IC50 was below 1 nM.

On to `CCOC(=O)N[C@H]1CC[C@H](NC(=O)c2c(C)[nH]c3c(-c4cc(OC)c(F)cc4OCC4CC4)ncnc23)CC1` [Example E109, Ethyl {trans-4-[({4-[2-(cyclopropylmethoxy)-4-fluoro-5-methoxyphenyl]-6-methyl-5H-pyrrolo[3,2-d]pyrimidin-7-yl}carbonyl)amino]cyclohexyl}carbamate], for which the IC50 is below 1 nM.

For `CCOC(=O)N[C@H]1CC[C@@H](NC(=O)c2c(C)[nH]c3c(-c4c(OCC5CC5)ccc5c4OCO5)ncnc23)CC1` [Example E12, Ethyl {cis-4-[({4-[5-(cyclopropylmethoxy)-1,3-benzodioxol-4-yl]-6-methyl-5H-pyrrolo[3,2-d]pyrimidin-7-yl}carbonyl)amino]cyclohexyl}carbamate], the IC50 is below 1 nM.

Consider `COCC(=O)N1CC[C@@H](NC(=O)c2c(C)[nH]c3c(-c4c(OCC5CC5)ccc5c4OCO5)ncnc23)C1` [Example E15, 4-[5-(Cyclopropylmethoxy)-1,3-benzodioxol-4-yl]-N-[(3R)-1-(methoxyacetyl)pyrrolidin-3-yl]-6-methyl-5H-pyrrolo[3,2-d]pyrimidine-7-carboxamide], for which the IC50 is below 1 nM.

Take `COCC(=O)N1CCC(NC(=O)c2c(C)[nH]c3c(-c4cc(OC)c(F)cc4OCC4CC4)ncnc23)CC1` [Example E104, 4-[2-(Cyclopropylmethoxy)-4-fluoro-5-methoxyphenyl]-N-[1-(methoxyacetyl)piperidin-4-yl]-6-methyl-5H-pyrrolo[3,2-d]pyrimidine-7-carboxamide]: the IC50 is below 1 nM.

With `Cc1[nH]c2c(-c3c(OCC4CC4)ccc4c3OCO4)ncnc2c1C(=O)N[C@H]1CC[C@@H](NC(=O)[C@H](C)O)CC1` [Example F6, 4-[5-(Cyclopropylmethoxy)-1,3-benzodioxol-4-yl]-N-(cis-4-{[(2S)-2-hydroxypropanoyl]amino}cyclohexyl)-6-methyl-5H-pyrrolo[3,2-d]pyrimidine-7-carboxamide], the IC50 was below 1 nM.

As for `COc1cc(OCC2CC2)c(-c2ncnc3c(C(=O)N[C@H]4CC[C@@H](NC(=O)CO)CC4)c(C)[nH]c23)cc1F` [Example F87, 4-[2-(Cyclopropylmethoxy)-5-fluoro-4-methoxyphenyl]-N-[cis-4-(glycoloylamino)cyclohexyl]-6-methyl-5H-pyrrolo[3,2-d]pyrimidine-7-carboxamide], the IC50 is below 1 nM.

With `CCC(=O)N1CC[C@@H](NC(=O)c2c(C)[nH]c3c(-c4cc(OC)ccc4OCC4CC4)ncnc23)C1` [Example E76, 4-[2-(Cyclopropylmethoxy)-5-methoxyphenyl]-6-methyl-N-[(3R)-1-propionylpyrrolidin-3-yl]-5H-pyrrolo[3,2-d]pyrimidine-7-carboxamide], the IC50 is below 1 nM.

For `COCC(=O)N1C[C@@H](O)[C@H](NC(=O)c2c(C)[nH]c3c(-c4cc(OC)c(F)cc4OCC4CC4)ncnc23)C1` (relative stereo) [Example E185, 4-[2-(Cyclopropylmethoxy)-4-fluoro-5-methoxyphenyl]-N-[(3R*,4R*)-4-hydroxy-1-(methoxyacetyl)pyrrolidin-3-yl]-6-methyl-5H-pyrrolo[3,2-d]pyrimidine-7-carboxamide], the IC50 is below 1 nM.

As to `COc1cc(OCC2CC2)c(-c2nc(C)nc3c(C(=O)NC4CCN(C(=O)[C@H](C)O)CC4)c(C)[nH]c23)cc1F` [Example F108, 4-[2-(Cyclopropylmethoxy)-5-fluoro-4-methoxyphenyl]-N-{1-[(2S)-2-hydroxypropanoyl]piperidin-4-yl}-2,6-dimethyl-5H-pyrrolo[3,2-d]pyrimidine-7-carboxamide], the IC50 was below 1 nM.

As to `CC(=O)N[C@H]1CC[C@@H](NC(=O)c2c(C)[nH]c3c(-c4cc(C)c(F)cc4OCC4CC4)ncnc23)CC1` [Example E125, N-[cis-4-(Acetylamino)cyclohexyl]-4-[2-(cyclopropylmethoxy)-4-fluoro-5-methylphenyl]-6-methyl-5H-pyrrolo[3,2-d]pyrimidine-7-carboxamide], the IC50 was below 1 nM.

With `CCC(=O)N1CCC(NC(=O)c2c(C)[nH]c3c(-c4cc(OC)c(F)cc4OCC4CC4)ncnc23)CC1` [Example E103, 4-[2-(cyclopropylmethoxy)-4-fluoro-5-methoxyphenyl]-6-methyl-N-(1-propionylpiperidin-4-yl)-5H-pyrrolo[3,2-d]pyrimidine-7-carboxamide], the IC50 was below 1 nM.

Turning to `COc1ccc(OCC2CC2)c(-c2ncnc3c(C(=O)N[C@@H]4CN(C(=O)CO)C[C@H]4O)c(C)[nH]c23)c1` (relative stereo) [Example F119, 4-[2-(Cyclopropylmethoxy)-5-methoxyphenyl]-N-[(3R*,4R*)-1-glycoloyl-4-hydroxypyrrolidin-3-yl]-6-methyl-5H-pyrrolo[3,2-d]pyrimidine-7-carboxamide], the IC50 was 1 to 10 nM.

On to `CC(=O)N1CC[C@@H](NC(=O)c2c(C)[nH]c3c(-c4cc(C)c(F)cc4OCC4CC4)ncnc23)[C@H](O)C1` (relative stereo) [Example E128, N-[(3R*,4R*)-1-Acetyl-3-hydroxypiperidin-4-yl]-4-[2-(cyclopropylmethoxy)-4-fluoro-5-methylphenyl]-6-methyl-5H-pyrrolo[3,2-d]pyrimidine-7-carboxamide], for which the IC50 is below 1 nM.

On to `CC(=O)N1CC[C@@H](NC(=O)c2c(C)[nH]c3c(-c4cc(F)ccc4OCC4CC4)ncnc23)C1` [Example E46, N-[(3R)-1-acetylpyrrolidin-3-yl]-4-[2-(cyclopropylmethoxy)-5-fluorophenyl]-6-methyl-5H-pyrrolo[3,2-d]pyrimidine-7-carboxamide], for which the IC50 is 1 to 10 nM.

For the molecule `COCC(=O)N1CCC(NC(=O)c2c(C)[nH]c3c(-c4cc(C(C)=O)ccc4OCC4CC4)ncnc23)CC1` [Example E165, 4-[5-Acetyl-2-(cyclopropylmethoxy)phenyl]-N-[1-(methoxyacetyl)piperidin-4-yl]-6-methyl-5H-pyrrolo[3,2-d]pyrimidine-7-carboxamide], the IC50 was below 1 nM.

As to `CCC(=O)N1C[C@@H](O)[C@H](NC(=O)c2c(C)[nH]c3c(-c4ccc(OC)cc4OCC4CC4)ncnc23)C1` (relative stereo) [Example E64, 4-[2-(Cyclopropylmethoxy)-4-methoxyphenyl]-N-[(3R*,4R*)-4-hydroxy-1-propionylpyrrolidin-3-yl]-6-methyl-5H-pyrrolo[3,2-d]pyrimidine-7-carboxamide], the IC50 was below 1 nM.

Turning to `CCc1ccc(OCC2CC2)c(-c2ncnc3c(C(=O)NC4CN(C(=O)C(C)O)CC4O)c(C)[nH]c23)c1` (mixture of isomers) [Example F98, Diastereomeric mixture of 4-[2-(cyclopropylmethoxy)-5-ethylphenyl]-N{(3R,4R)-4-hydroxy-1-[(2S)-2-hydroxypropanoyl]pyrrolidin-3-yl}-6-methyl-5H-pyrrolo[3,2-d]pyrimidine-7-carboxamide and 4-[2-(cyclopropylmethoxy)-5-ethylphenyl]-N-{(3S,4S)-4-hydroxy-1-[(2S)-2-hydroxypropanoyl]pyrrolidin-3-yl}-6-methyl-5H-pyrrolo[3,2-d]pyrimidine-7-carboxamide], the IC50 was 1 to 10 nM.

With `CCC(=O)N1CCC(NC(=O)c2c(C)[nH]c3c(-c4cc(C(C)=O)ccc4OCC4CC4)ncnc23)CC1` [Example E164, 4-[5-Acetyl-2-(cyclopropylmethoxy)phenyl]-6-methyl-N-(1-propanoylpiperidin-4-yl)-5H-pyrrolo[3,2-d]pyrimidine-7-carboxamide], the IC50 is below 1 nM.

Take `CCC(=O)N1CC[C@@H](NC(=O)c2c(C)[nH]c3c(-c4cc(F)c(OC)cc4OCC4CC4)ncnc23)C1` [Example E187, 4-[2-(Cyclopropylmethoxy)-5-fluoro-4-methoxyphenyl]-6-methyl-N-[(3R)-1-propionylpyrrolidin-3-yl]-5H-pyrrolo[3,2-d]pyrimidine-7-carboxamide]: the IC50 is below 1 nM.

As for `COc1cc(-c2ncnc3c(C(=O)N[C@@H]4CN(C(=O)[C@H](C)O)C[C@H]4O)c(C)[nH]c23)c(OCC2CC2)cc1F` (relative stereo) [Example F114, 4-[2-(Cyclopropylmethoxy)-4-fluoro-5-methoxyphenyl]-N-{(3R*,4R*)-4-hydroxy-1-[(2S)-2-hydroxypropanoyl]pyrrolidin-3-yl}-6-methyl-5H-pyrrolo[3,2-d]pyrimidine-7-carboxamide], the IC50 is below 1 nM.
